# Results reported in US20150087619A1, “METHOD OF MITIGATING VIRUS ASSOCIATED END-ORGAN DAMAGE” (CHIMERIX, INC., priority 2012, published 2015).
# Entries after “also recorded” stand apart in the source; their conditions may differ.
# Assays:
# EBV [1] = experiment: In vitro antiviral activity in cell culture; format: cell-based; details: human gammaherpesvirus 4
# BKV [2] = experiment: Study HDP-CDV-201: BK viruria and viremia in post-HCT subjects; format: in vivo, human
# Method: A HDP-CDV-201, a 9-11 week randomized, placebo-controlled, double-blind, dose-escalation clinical study (40 mg weekly [QW], 100 mg QW, 200 mg QW, 200 mg twice-weekly [BIW], and 100 mg BIW) of HDP-CDV for the prevention of BKV infection post-HCT was performed. Treatment was initiated at the time of engraftment and continued until Week 13 post-HCT.
# A multicenter, randomized, double-blind, placebo-controlled, dose-escalation study of safety, tolerability, and ability of HDP-CDV to prevent or control AdV, BKV, and EBV infection and associated disorders was conducted. During enrollment of patients in the study, urine samples of candidate patients were routinely screened for BKV. Plasma was collected from patients who tested positive for BKV viruria in urine, and AdV, EBV and BKV level in the plasma was evaluated.
# Subjects were tabulated according to treatment group (pooled HDP-CDV versus placebo) and BKV status (viruria positive or negative any time during treatment). Pairwise comparisons were performed using a Fisher's exact test. Data were pooled for HDP-CDV versus placebo groups due to the limited sample size. […] Data from the largest study cohort (HDP-CDV 100 mg BIW) are presented separately in some of the analyses as this dose as been selected for further development of HDP-CDV in Phase 3 trials.
# BKV [3] = experiment: In vitro antiviral activity in cell culture; format: cell-based
# clinical = details: male, human, plasma, 40 mg
# EBV [4] = experiment: HDP-CDV given to patients with viral infections, virology data; details: 4 mg/kg BIW
# [5] = Pharmacokinetic analysis in pediatric and geriatric patients; format: in vivo, human
# Method: This study population included five children. Pediatric patients received approximate doses of 1, 2, 3, or 4 mg/kg given once or twice weekly. […] Variability in PK parameters for this age group was high with respect to AUC, Cmax, and CL/F. In general, pediatric patients had lower plasma concentrations of HDP-CDV and CDV than adult healthy volunteers or patients on the same dose and schedule.
# The study population also included 3 elderly adults. Geriatric patients received approximate doses of 1, 2, or 3 mg/kg given either once or twice weekly. Similar to pediatric patients, the medical condition of geriatric patients varied widely. Variability in PK parameters for this age group was high with respect to AUC, Cmax, and CL/F. In general, geriatric patients had higher plasma concentrations of HDP-CDV and CDV and lower CL/F than those observed in younger healthy volunteers or patients.
# High CDV CL/fm values were also observed in children.
# ADV = experiment: HDP-CDV given to patients with viral infections, virology data
# BKV [6] = experiment: as above; details: patient
# VZV-BAC-Luc strain = format: in vivo, mouse
# [7] = patient 21 mo, 10 kg, 2 mg/kg BIW
# [8] = patient, 67 kg, 2 mg/kg BIW, 4 mg/kg BIW
# [9] = patient, 70 kg, 2 mg/kg every three days
# 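Throughout, for Cmax: plasma levels quantified by validated LC-MS/MS, LLOQ 0.1 ng/mL for HDP-CDV and 0.5 ng/mL for CDV, crossover design with 14-day washout between single doses.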
smiles,measurement,setting,value
CCCCCCCCCCCCCCCCOCCCOP(=O)(O)COC(CO)Cn1ccc(N)nc1=O (stereo not drawn) [HDP-CDV],EC50,EBV [1],40 nM
same,antiviral effect,BKV [2]; 40 mg QW dose,has not been shown to have antiviral activity; also recorded: no antiviral effect
same,BKV viral load and risk or incidence of end organ damage,"BKV [2]; BKU+ patients, FIG. 3",effective in reducing BKV viral load and the risk or incidence of end organ damage
same,">10,000 confirmed, new onset (viremia)",BKV [2]; Cohort 4A 100 mg BIW,0
same,Viruria >1.0E+10 but only at posttreatment week,BKV [2]; Cohort 4A 100 mg BIW (1/22),(4.5%)
same,"Viremia sustained, but no viremia at baseline",BKV [2]; Cohort 4A 100 mg BIW (3/22),(13.6%)
same,Viremia >1000 copies/mL confirmed,BKV [2]; Cohort 4A 100 mg BIW (4/22),(18.2%)
same,Viremia sustained (at least 2 consecutive values positive),BKV [2]; Cohort 4A 100 mg BIW (5/22),(22.7%)
same,Viremia at any time during treatment,BKV [2]; Cohort 4A 100 mg BIW (6/22),(27.3%)
same,Viruria >1.0E+10 at any time during treatment,"BKV [2]; Cohort 4A 100 mg BIW, BKV positive urine at baseline (4/22)",(18.2%)
same,BK viremia,"BKV [2]; Cohort 4a (100 mg BIW), 5/22",23%
same,Viruria >1.0E+10 but only at posttreatment week,BKV [2]; Pooled HDP-CDV cohorts (4/77),(5.2%)
same,">10,000 confirmed, new onset (viremia)",BKV [2]; Pooled HDP-CDV cohorts (5/77),(6.5%)
same,"Viremia sustained, but no viremia at baseline",BKV [2]; Pooled HDP-CDV cohorts (23/77),(29.9%)
same,Viremia >1000 copies/mL confirmed,BKV [2]; Pooled HDP-CDV cohorts (31/77),(26%)
same,Viremia sustained (at least 2 consecutive values positive),BKV [2]; Pooled HDP-CDV cohorts (32/77),(41.6%)
same,Viremia at any time during treatment,BKV [2]; Pooled HDP-CDV cohorts (40/77),(47%)
same,Viruria >1.0E+10 at any time during treatment,"BKV [2]; Pooled HDP-CDV cohorts, BKV positive urine at baseline (26/77)",(33.8%)
same,"subjects who developed viremia >10,000 copies/mL",BKV [2]; cohort 1 (40 mg QW),1
same,BK viremia,"BKV [2]; cohort 1 (40 mg QW), 5/8",62%
same,"subjects who developed viremia >10,000 copies/mL",BKV [2]; cohort 2 (100 mg QW),1
same,"subjects who developed viremia >10,000 copies/mL",BKV [2]; cohort 3 (200 mg QW),3
same,"subjects who developed viremia >10,000 copies/mL",BKV [2]; cohort 4 (200 mg BIW),3
same,"subjects who developed viremia >10,000 copies/mL",BKV [2]; cohort 4a (100 mg BIW),0
same,subjects with high levels of BK viruria,"BKV [2]; negative for BK viruria at baseline, Cohort 1 (40 mg QW)",0 subject
same,subjects with high levels of BK viruria,"BKV [2]; negative for BK viruria at baseline, Cohort 2 (100 mg QW)",1 subject
same,subjects with high levels of BK viruria,"BKV [2]; negative for BK viruria at baseline, Cohort 3 (200 mg QW)",2 subject
same,subjects with high levels of BK viruria,"BKV [2]; negative for BK viruria at baseline, Cohort 4 (200 mg BIW)",0 subject
same,subjects with high levels of BK viruria,"BKV [2]; negative for BK viruria at baseline, Cohort 4a (100 mg BIW)",0 subject
same,subjects with viremia,"BKV [2]; negative for BK viruria at baseline, pooled HDP-CDV",one
same,viral load (maximum BKV viruria),"BKV [2]; patients (67%) who did not develop end organ disease, FIG. 3",2.0×10^8
same,viral load (maximum BKV viruria),"BKV [2]; patients who developed end organ disease after treatment (33%), FIG. 3",3.2×10^8
same,viral load compared to patients who received placebo,"BKV [2]; patients who developed end organ disease after treatment, FIG. 3",significantly lower viral load
same,sustained BK viruria (at least 4 weeks with BK positive urine measurements),"BKV [2]; subjects negative for BK viruria at baseline (9/73), placebo 21%",12%
same,confirmed new onset BK viruria during treatment,"BKV [2]; subjects negative for BK viruria at baseline (10/73), placebo 25%",14%
same,measurable BK viruria on at least one occasion,"BKV [2]; subjects negative for BK viruria at baseline (16/73), placebo 29%",22%
same,EC50,BKV [3],130 nM
same,AUC(0-inf),clinical; oral,476 ng·h/mL
same,AUC(0-t),clinical; oral,457 ng·h/mL
same,Cmax,clinical; oral,70.5 ng/mL
same,AUC(0-inf),clinical; po,574 ng·h/mL
same,AUC(0-t),clinical; po,549 ng·h/mL
same,Cmax,clinical; po,77.7 ng/mL
same,Vd/F,clinical; po,831 L
same,half-life,clinical; po,8.06 h
same,decrease in EBV levels in blood,"EBV [4]; patient 6 months, 6 kg, EBV associated PTLD, four days after starting",There was approximately a 5-fold decrease
same,blood EBV viral load after one month of therapy,"EBV [4]; patient 22 months, 13.8 kg, from >50,000,000 copies/mL","copies/mL to 100,000 copies/mL over one"
same,replication of EBV as measured by plasma PCR,"EBV [4]; patient, 27 kg, EBV-associated PTLD",There is no evidence of on-going
same,CDV CL/fm values,[5]; children,High
same,CL/F vs younger healthy volunteers or patients,[5]; geriatric patients aged 66-68 years,lower
same,plasma concentrations of HDP-CDV and CDV vs younger healthy volunteers or patients,"[5]; geriatric patients aged 66-68 years, approx. 1-3 mg/kg once or twice weekly",higher
same,CL/F values vs older subjects,[5]; patients <20 years of age,higher
same,ADV in stool on therapy,"ADV; patient 9 months, 6.58 kg, disseminated ADV, 3 mg/kg BIW",decreased by a similar amount.
same,stool ADV decline,"ADV; patient 16 mo, 10.4 kg, 4 mg/kg BIW, 3 weeks",ADV declined approximately 1 log10 over
same,Plasma ADV after 3 weeks of therapy,"ADV; patient 16 mo, 10.4 kg, 4 mg/kg BIW, from 809 c/ml",declined from 809 c/ml to undetectable
same,plasma ADV viremia after discontinuation (rebound),ADV; [7],CDV when it rebounded to 100 copies/ml.
same,response in stool viral load,ADV; [7],load (<10-fold).
same,plasma ADV viremia on treatment,"ADV; patient 21 mo, 10 kg, 2 mg/kg BIW, baseline 100 copies/mL",became undetectable and stayed
same,decrease in plasma ADV,"ADV; patient, 14.1 kg, 4 mg/kg BIW",ADV2. A ~2 log10 decrease in plasma
same,ADV in blood 4 days after one dose,"ADV; patient, 19.1 kg, disseminated ADV, 60 mg BIW, from 51,000 c/mL",100 c/mL in 4 days after one dose.
same,Adenovirus decline in plasma,"ADV; patient, 65 kg, 2 mg/kg BIW, to the limit of detection",ADV 5 (plasma). Adenovirus declined 2.6 log10
same,ADV viruria initial decline,ADV; [8],respond well initially with a 2.4 log10
same,"ADV viruria rebound, distance from baseline",ADV; [8],decline only to rebound to within 0.7 log10
same,ADV plasma viremia decline,"ADV; patient, 67 kg, 2 mg/kg BIW, 4 mg/kg BIW, from 5.1 log10 to the limit of detection",declined 3.1 logs from 5.1 log10 to the limit
same,ADV viremia approximately two weeks after D/C,ADV; [9],"HDP-CDV, ADV viremia rebounded."
same,Colon biopsy for ADV after therapy,ADV; [9],negative
same,ADV viremia decrease,"ADV; patient, 70 kg, 2 mg/kg every three days, after 3 weeks",> 3 log10
same,ADV viremia after 3 weeks,"ADV; patient, 70 kg, 2 mg/kg every three days, from 430,000 copies/mL",copies/mL to undetectable after 3 weeks
same,stool viral load,"ADV; patient, 81 kg, ADV pneumonia, 2 mg/kg BIW",modest decline in stool viral load.
same,Plasma ADV decline,"ADV; patient, 81 kg, ADV pneumonia, 2 mg/kg BIW, 10 days/4 doses",ADV 12. Plasma ADV declined 2.4 log10
same,ADV viremia decrease,"ADV; patient, 108 kg, 3 mg/kg first dose, 2 mg/kg BIW thereafter, after approximately 2-3 weeks",~2 log10
same,ADV viremia after first two weeks,"ADV; patient, 4 mg/kg BIW, 3 doses, from 1.5 million","ADV viremia from 1.5 million to 98,000 c/ml"
same,decrease in ADV viremia,"ADV; patient, 4 mg/kg BIW, first two weeks, 3 doses",This patient had a 1.2 log10 decrease in
same,response of BKV in urine,"BKV [6]; 57.9 kg, 2 mg/kg BIW",CMV viremia but no sustained response of
same,BK viruria during administration,"BKV [6]; 69 kg, BKV hemorrhagic cystitis, 2 mg/kg, 1 mg/kg second dose, then 2 mg/kg BIW",ganciclovir. BK viruria decreased during
same,BKV in urine,"BKV [6]; 108 kg, 3 mg/kg first dose, 2 mg/kg BIW thereafter, by a similar amount (almost 2 log10)",rose
same,viral load (qPCR),"VZV-BAC-Luc strain; 1.25, 2.5, and 5.0 mg/kg, 8 doses once daily",dose dependent
same,efficacy in vivo,VZV-BAC-Luc strain; SCID-Hu mouse model of VZV replication,highly effective
